Consider 1 compound from publication PMC10825183 (Nature Communications, 2024).

For one test, the target named is T1, rbHCN4 ΔE (1-733) (Oryctolagus cuniculus, UniProt Q9TV66).
T1 construct: rbHCN4 ΔE (1-733); expressed in transfected cells; host or cells: HEK293T
T1 sequence (Q9TV66 1-733): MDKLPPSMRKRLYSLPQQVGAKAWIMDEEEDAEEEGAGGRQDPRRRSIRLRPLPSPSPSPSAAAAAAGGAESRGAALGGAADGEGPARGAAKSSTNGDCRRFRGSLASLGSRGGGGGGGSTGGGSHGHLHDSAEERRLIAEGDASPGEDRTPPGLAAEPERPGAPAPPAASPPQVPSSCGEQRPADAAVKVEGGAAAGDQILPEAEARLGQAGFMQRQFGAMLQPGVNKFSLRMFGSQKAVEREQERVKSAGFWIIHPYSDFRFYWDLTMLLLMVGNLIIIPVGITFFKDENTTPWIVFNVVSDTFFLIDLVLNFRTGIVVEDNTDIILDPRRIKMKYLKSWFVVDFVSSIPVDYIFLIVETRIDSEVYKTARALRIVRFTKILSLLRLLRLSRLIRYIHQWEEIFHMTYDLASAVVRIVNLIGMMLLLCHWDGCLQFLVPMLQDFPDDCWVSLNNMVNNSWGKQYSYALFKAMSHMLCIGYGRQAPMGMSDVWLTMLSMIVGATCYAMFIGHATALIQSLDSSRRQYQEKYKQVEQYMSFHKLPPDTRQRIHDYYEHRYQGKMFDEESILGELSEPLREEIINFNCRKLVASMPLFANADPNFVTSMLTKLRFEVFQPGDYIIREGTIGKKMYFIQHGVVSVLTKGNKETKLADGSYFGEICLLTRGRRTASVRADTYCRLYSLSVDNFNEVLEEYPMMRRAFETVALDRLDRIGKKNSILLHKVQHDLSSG
Description: Whole-cell patch clamp in HEK293T cells, HCN4 ΔE. Format: cell-based, rabbit. For orientation: In patch-clamp work, channel activity is measured electrically.

Another test addresses T2, rbHCN4 full-length (FL) (Oryctolagus cuniculus, UniProt Q9TV66).
T2 construct: The cDNA encoding the full-length rabbit HCN4 was previously cloned in pCI (Promega) mammalian expression vector; expressed in transfected cells; host or cells: HEK293T
T2 sequence (Q9TV66 1-1175): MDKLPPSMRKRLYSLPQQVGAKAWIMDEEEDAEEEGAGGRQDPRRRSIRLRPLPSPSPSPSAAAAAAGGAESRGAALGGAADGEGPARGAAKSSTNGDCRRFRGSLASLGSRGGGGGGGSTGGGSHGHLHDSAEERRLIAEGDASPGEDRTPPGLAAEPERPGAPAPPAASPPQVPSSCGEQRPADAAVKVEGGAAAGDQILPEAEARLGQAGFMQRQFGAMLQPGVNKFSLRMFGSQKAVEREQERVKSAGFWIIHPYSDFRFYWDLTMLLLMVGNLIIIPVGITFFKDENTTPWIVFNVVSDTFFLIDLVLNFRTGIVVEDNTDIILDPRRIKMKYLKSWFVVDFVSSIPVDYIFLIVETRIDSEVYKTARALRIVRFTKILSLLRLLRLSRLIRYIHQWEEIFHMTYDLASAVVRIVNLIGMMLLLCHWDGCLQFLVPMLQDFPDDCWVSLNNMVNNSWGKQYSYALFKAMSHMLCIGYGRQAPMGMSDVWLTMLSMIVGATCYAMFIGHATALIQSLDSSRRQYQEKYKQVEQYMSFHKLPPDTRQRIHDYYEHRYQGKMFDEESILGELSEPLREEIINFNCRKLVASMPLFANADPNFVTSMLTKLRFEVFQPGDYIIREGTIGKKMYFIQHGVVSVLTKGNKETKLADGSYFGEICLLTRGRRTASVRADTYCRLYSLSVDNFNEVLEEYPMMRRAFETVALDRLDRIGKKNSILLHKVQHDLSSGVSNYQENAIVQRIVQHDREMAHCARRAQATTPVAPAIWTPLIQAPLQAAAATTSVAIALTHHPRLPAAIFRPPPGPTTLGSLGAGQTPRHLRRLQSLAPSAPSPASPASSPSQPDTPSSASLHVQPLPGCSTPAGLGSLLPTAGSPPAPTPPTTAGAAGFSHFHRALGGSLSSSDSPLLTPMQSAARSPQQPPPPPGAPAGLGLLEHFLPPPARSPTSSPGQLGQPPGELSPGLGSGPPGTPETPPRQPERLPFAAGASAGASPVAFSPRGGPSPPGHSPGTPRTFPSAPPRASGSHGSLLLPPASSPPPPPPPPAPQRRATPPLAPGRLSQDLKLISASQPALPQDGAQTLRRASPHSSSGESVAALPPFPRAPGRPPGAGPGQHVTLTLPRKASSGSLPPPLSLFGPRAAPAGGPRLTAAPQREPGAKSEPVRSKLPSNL
The test can be described thus: Whole-cell patch clamp in HEK293T cells, HCN4 full length. The format is cell-based, rabbit.

The next test has as its target T3, human HCN2 CNBD ΔC-term (Homo sapiens, UniProt Q9UL51).
T3 sequence (Q9UL51 521-706): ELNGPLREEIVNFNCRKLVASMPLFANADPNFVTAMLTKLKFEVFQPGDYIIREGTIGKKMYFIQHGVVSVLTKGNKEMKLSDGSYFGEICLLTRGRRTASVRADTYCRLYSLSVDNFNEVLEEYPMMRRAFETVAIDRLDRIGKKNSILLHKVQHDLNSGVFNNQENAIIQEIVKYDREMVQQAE
Description: Isothermal titration calorimetry (ITC), CNBD ΔC-term. The following applies: mean ± SEM, n = 3. (In ITC the heat of successive injections is recorded.)

For another test, the target named is hHCN2 CNBD D698A (Homo sapiens, UniProt Q9UL51, D698A). The following applies: cAMP titrant.
[1] abbreviates: 5 µM cAMP in pipette, mean ± SEM.
[2] abbreviates: Hill fit of shift in V1/2 vs cAMP concentration.

hHCN2 CNBD D698A, sequence (Q9UL51 521-706 D698A): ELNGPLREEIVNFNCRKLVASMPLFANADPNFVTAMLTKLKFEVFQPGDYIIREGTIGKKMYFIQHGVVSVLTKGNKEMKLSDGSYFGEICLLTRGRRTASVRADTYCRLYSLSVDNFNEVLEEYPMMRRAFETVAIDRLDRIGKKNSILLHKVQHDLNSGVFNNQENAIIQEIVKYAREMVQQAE

Broadly, the Kd is the equilibrium constant for the complex coming apart. A lower Kd goes with a tighter complex. In the case of `Nc1ncnc2c1ncn2[C@@H]1O[C@@H]2COP(=O)(O)O[C@H]2[C@H]1O` [cAMP, Adenosine 3′,5′-cyclic monophosphate], the “V1/2 with cAMP” value was -97.2 ± 0.6 mV at rbHCN4 ΔE (1-733) (setting [1]); -89.9 ± 1.6 mV on rbHCN4 full-length (FL) (1 µM cAMP in pipette, mean ± SEM); -87.5 ± 0.7 mV at rbHCN4 full-length (FL) (setting [1]). For the same compound, the “k (inverse slope factor) with cAMP” value on rbHCN4 ΔE (1-733) (5 µM cAMP, mean ± SEM) amounted to 9.1 ± 1.2 mV; at rbHCN4 full-length (FL) (1 µM cAMP, mean ± SEM), 11.7 ± 1 mV; on rbHCN4 full-length (FL) (5 µM cAMP, mean ± SEM), 10.6 ± 0.4 mV. In addition, the “V1/2 + cAMP” value on rbHCN4 ΔE (1-733) (60 µM cAMP in pipette, mean ± SEM) was -81.1 ± 0.8 mV; at rbHCN4 full-length (FL) (15 µM cAMP in pipette, mean ± SEM), -79.3 ± 0.9 mV. Moreover, the “k + cAMP” value on rbHCN4 ΔE (1-733) (60 µM cAMP, mean ± SEM) is reported as 9.8 ± 0.8 mV; on rbHCN4 full-length (FL) (15 µM cAMP, mean ± SEM), 10.2 ± 1 mV. The “Hill coefficient (nH)” value at rbHCN4 ΔE (1-733) (setting [2]) and on rbHCN4 full-length (FL) (setting [2]) was 0.9 throughout. Further, the Kd on human HCN2 CNBD ΔC-term (KD, cAMP titrated into 20 µM CNBD, 25 °C) was determined as 300 ± 10 nM. Besides, the “stoichiometry (N)” value on human HCN2 CNBD ΔC-term (cAMP titrant) came to 0.4 ± 0.1; at hHCN2 CNBD D698A (mean ± SEM, n = 3) it was 0.8 ± 0.1. The “N, representative sample (Fig. 4d)” value at hHCN2 CNBD D698A (single ITC experiment) was 0.7.
